# From patent publication US8623904B2, “Use of tetramic acid derivatives for controlling pests by watering or droplet application” (Bayer CropScience AG, priority 2007, dated 2014)
# What was measured:
# Oidium Iycopersicum = assay: Drench application to tomato plants on rock wool, infection with powdery mildew Oidium Iycopersicum, efficacy by Abbott formula; type: in vivo; details: 40 mg of active compound/plant, 240 SC, watered 100 ml; for Efficacy (% Abbott) against Oidium Iycopersicum 14 d: 14 d after infection; for Efficacy (% Abbott) against Oidium Iycopersicum 23 d: 23 d after infection; for Efficacy (% Abbott) against Oidium Iycopersicum 28 d new growth / Efficacy (% Abbott) against Oidium Iycopersicum 28 d old leaves: 28 d after infection
# Method: In each case three tomato plants of the cultivar “Hoffmanns Rendita” on rock wool are, in two replications, watered one week after transplantation with in each case 100 ml of active compound solution comprising the active compound (II) (formulation: 240 SC) at the stated application rate. The greenhouse temperature is 20° C. during the day and 17° C. at night. Infection with the powdery mildew Oidium Iycopersicum is in each case carried out two and seven days after the active compound application. Evaluation is in each case carried out 14, 23, 28, 35 days after the respective infection by determining the efficacy on the old leaves and the new growth using the Abbott formula*.
# (§1) Calculation of the efficacy according to Abbott:
# (§2) [formula] where X=value for the control and Y=value for the compound tested
# Leveillula taurica = assay: Drench application to bell pepper plants, natural infection with Leveillula taurica, efficacy by Abbott formula; type: in vivo; details: 240 SC, watered 50 ml, bell pepper "Shishitou aoi", 21 days after treatment
# Method: 8 plots each 2.25 m^2 in size with bell pepper plants of the cultivar “Shishitou aoi” are, in two replications, watered with 50 ml of an active compound solution comprising the active compound (II) (formulation: 240 SC) at the stated application rate. Following a severe natural infection with Leveillula taurica, evaluation is carried out 21 days after the treatment by determining the efficacy using the Abbott formula*.
# as §1, §2
structure (smiles),measurement,setting,value
CCOC(=O)OC1=C(c2cc(C)ccc2C)C(=O)N[C@]12CC[C@@H](OC)CC2 [Active compound (II)],Efficacy (% Abbott) against Oidium Iycopersicum 14 d,Oidium Iycopersicum; 2 d prior to infection,33 % Abbott
same,Efficacy (% Abbott) against Oidium Iycopersicum 23 d,Oidium Iycopersicum; 2 d prior to infection,40 % Abbott
same,Efficacy (% Abbott) against Oidium Iycopersicum 28 d new growth,Oidium Iycopersicum; 2 d prior to infection,65 % Abbott
same,Efficacy (% Abbott) against Oidium Iycopersicum 28 d old leaves,Oidium Iycopersicum; 2 d prior to infection,41 % Abbott
same,Efficacy (% Abbott) against Oidium Iycopersicum 14 d,Oidium Iycopersicum; 7 d prior to infection,45 % Abbott
same,Efficacy (% Abbott) against Oidium Iycopersicum 23 d,Oidium Iycopersicum; 7 d prior to infection,45 % Abbott
same,Efficacy (% Abbott) against Oidium Iycopersicum 28 d new growth,Oidium Iycopersicum; 7 d prior to infection,77 % Abbott
same,Efficacy (% Abbott) against Oidium Iycopersicum 28 d old leaves,Oidium Iycopersicum; 7 d prior to infection,45 % Abbott
same,Efficacy (% Abbott) against Leveillula taurica 21 d,Leveillula taurica; 40 mg of active compound/plant,87.4 % Abbott
same,Efficacy (% Abbott) against Leveillula taurica 21 d,Leveillula taurica; 60 mg of active compound/plant,100 % Abbott
same,Efficacy (% Abbott) against Leveillula taurica 21 d,Leveillula taurica; 80 mg of active compound/plant,100 % Abbott
